Laboratory results: US8946275B2, “Treatment of cancer using hypoxia activated prodrugs” (Threshold Pharmaceuticals, Inc., priority 2008, dated 2015)

How the values were obtained:
[1] = tested on: H460 human non-small cell lung cancer; experiment: H460 ectopic xenograft, TH-302/docetaxel dosing schedules; assay type: in vivo, nude mice; details: single agent, TH-302 100 mg/kg ip once or Docetaxol 10 mg/kg iv once
Description: (§1) Anti-tumor activity was evaluated by tumor growth delay (TGD) and tumor growth inhibition (TGI). Body weight change, gross and microscopic assessment of tissue changes, and hematologic assays served for toxicity assessment. Testing in these models was conducted generally as follows. 1×10^6 (H460 human non-small cell lung cancer or HT1080 human fibrosarcoma cells) or 3×10^6 (PC-3 human prostate cancer cells) were implanted in the subcutaneous space of the right flank to obtain ectopic xenograft models. Randomization and dosing was initiated when tumors reached a certain size (100-150 mm^3). API grade of TH-302 was used in all experiments while docetaxel, gemcitabine, cisplatin, pemetrexed, and doxorubicin were purchased from commercial sources.
The H460 cells were prepared in 30% Matrigel and 70%. RPMI1640. Mice were anesthetized by isoflurane and were implanted subcutaneously with 1×10^6 cells (in 200 μl) at the flank position. We selected 110 mice bearing similar size tumors (˜100 mm^3) for the study. Mice bearing similar tumor size were randomly assigned into different groups. Treatment started on day 1 (7 days after tumor implantation) except as noted. […] Animals were observed daily and tumor measurements and body weights recorded twice weekly.

[2] = tested on: PC-3 human prostate cancer cells; experiment: PC-3 ectopic xenograft, TH-302/docetaxel dosing schedules; assay type: in vivo, nude mice; details: single agent, TH-302 150 mg/kg ip once or Docetaxol 10 mg/kg iv once
[3] = tested on: H460 NSCLC cells; experiment: H460 ectopic xenograft, TH-302/pemetrexed dosing schedules; assay type: in vivo, nude mice; details: single agent, TH-302 100 mg/kg ip Q7Dx2 or PMX 150 mg/kg ip Q7Dx2
Description: as §1
(§2) The H460 cells were prepared in 30% Matrigel and 70%. RPMI1640. Mice were anesthetized by isoflurane and were implanted subcutaneously with 1×10^6 cells (in 200 μl) at the flank position. We selected 110 mice bearing similar size tumors (˜100 mm^3) for the study. Mice bearing similar tumor size were randomly assigned into different groups. Treatment started on day 1 (7 days after tumor implantation) except as noted. TH-302 was administered intraperitoneally (IP) at 150 mg/kg, and docetaxel was administered intravenously (IV) at 10 mg/kg. Animals were observed daily and tumor measurements and body weights recorded twice weekly.
In a study conducted substantially as described above except the cells implanted were H460 NSCLC cells and 1×10^6 cells were implanted and mice were randomized into separate groups when their tumors reached ˜100 mm^3 and the chemotherapeutic employed was pemetrexed at a dose of 150 mg/kg given once a week (Q7D) for two weeks IP and the TH-302 was given at 100 mg/kg given once a week (Q7D) for two weeks IP. […]

[4] = tested on: HT1080 human fibrosarcoma cells; experiment: HT1080 ectopic xenograft, TH-302/doxorubicin dosing schedules; assay type: in vivo, nude mice; details: single agent, TH-302 100 mg/kg ip 1/wkx2wks or Dox 4 mg/kg iv 1/wkx2wks
Description: as §1, §2
In a study conducted substantially as described above except the cells implanted were HT1080 human fibrosarcoma cells and 1×10^6 cells were implanted and mice were randomized into separate groups when their […]

[5] = tested on: Calu6 NSCLC; experiment: Calu-6 ectopic tumor model, TH-302 with doxorubicin; assay type: in vivo, nude mice; details: Dox 4 mg/kg IV Q7Dx2; TH-302 50 mg/kg IP QDx5/wkx2wks; alone or combined
[6] = tested on: H460 NSCLC; experiment: H460 ectopic tumor model, TH-302 with carboplatin; assay type: in vivo, nude mice
Description: Anti-tumor activity was evaluated by tumor growth inhibition (TGI) and tumor growth delay (TGD). Body weight change, gross and microscopic assessment of tissue changes, and hematologic assays served for toxicity assessment.
Testing in these models was conducted generally as follows. 1×10^6 H460 human non-small cell lung cancer or HT1080 human fibrosarcoma cells were implanted in the subcutaneous space of the right flank to obtain ectopic xenograft models. For the orthotopic pancreatic model, red-fluorescent protein (RFP) expressing MIA PaCa2 tumors were surgically implanted on the surface of the pancreas. The prostate metastatic model was created by the intraventricular injection of 3×10^6 luciferase-expressing PC-3 cells. […] API grade of TH-302 was used in all experiments while docetaxel, gemcitabine, doxorubicin and pemetrexed were purchased from commercial sources.
Inhibition of tumor growth after administration of TH-302 and carboplatin was greater than for either drug individually in an ectopic tumor model using H460 cells.

[7] = tested on: HT29 colon cancer; experiment: HT-29 ectopic tumor model, TH-302 with 5FU; assay type: in vivo, nude mice
[8] = tested on: orthotopic prostate cancer PC-3 cells; experiment: Orthotopic PC-3 prostate cancer model, TH-302 with Taxol; assay type: in vivo, mice; details: single agents: Taxol 12 mg/kg; TH-302 30 or 50 mg/kg
Description: TH-302 was tested as monotherapy and in combination with Taxol (paclitaxel) in animals bearing highly invasive and metastatic orthotopic prostate cancer PC-3 cells. Animals were randomized into 6 groups of 8 mice each and then treated either with vehicle; Taxol (12 mg/kg, IV, twice a week for 4 consecutive weeks); TH-302 (30 or 50 mg/kg, IP, once a day for 5 days a week for 2 consecutive weeks); or Taxol in combination with TH-302 (using the same single agent regimens).

[9] = Carboplatin 20 mg/kg IV Q7Dx2, TH-302 100 mg/kg IP Q7Dx2, alone or combined
[10] = TH-302 150 mg/kg IP Q7Dx2, alone or + Carboplatin 20 mg/kg IV Q7Dx2
[11] = 5-FU 50 mg/kg IV Q3Dx4, TH-302 150 mg/kg IP Q7Dx3, alone or combined
[12] = TH-302 100 mg/kg IP Q3Dx5, alone or + 5-FU 50 mg/kg IV Q3Dx4

In the case of Cn1c(COP(=O)(NCCBr)NCCBr)cnc1[N+](=O)[O-] [TH-302, (2-bromoethyl)({[(2-bromoethyl)amino][(2-nitro-3-methylimidazol-4-yl)methoxy]phosphoryl})amine], the “Days to 500 mm^3” value [1] was 21 days, the “Days to 1000 mm^3” value [1] was 31 days and the T/C [1] was 42.5%. The “TGD500, Days (vs. vehicle)” value [1] was 8 days, the “TGD1000, Days (vs. vehicle)” value [1] was 11 days and the TGI [1] was 57.5%. The “Tn (tumor volume on Day n)” value ([1]; in mm³) was 531.74, the “Days to 500 mm^3” value [2] was 25 days and the T/C [2] was 48.7%. The “TGD500, Days (vs. vehicle)” value [2] was 9 days, the TGI [2] was 51.3% and the “Tn (tumor volume on Day n)” value ([2]; in mm³) was 559.95. The “Days to 500 mm^3” value [3] was 19 days, the “Days to 1000 mm^3” value [3] was 30 days and the T/C [3] was 49.7%. The “TGD500, Days (vs. vehicle)” value [3] was 7 days, the “TGD1000, Days (vs. vehicle)” value [3] was 9 days and the TGI [3] was 50.3%. For the same compound, the “Tn (tumor volume on Day n)” value [3] was 598.34, the “Days to 500 mm^3” value [4] was 22 days and the T/C [4] was 25.3%. For the same compound, the “TGD500, Days (vs. vehicle)” value [4] was 10 days, the TGI [4] was 74.7% and the “Tn (tumor volume on Day n)” value [4] was 334.66. For the same compound, the “Days to 500 mm^3” value [5] was 29 days, the “Days to 1000 mm^3” value [5] was 39 days and the T/C [5] was 59.2%. For the same compound, the “TGD500, Days (vs. vehicle)” value [5] was 11 days, the “TGD1000, Days (vs. vehicle)” value [5] was 8 days and the TGI [5] was 40.8%. For the same compound, the “Tn (tumor volume on Day n)” value [5] was 695.67, the “Days to 500 mm^3” value [6, 9] was 13.5 days and the T/C [6, 9] was 56.1%. For the same compound, the “TGD500, Days (vs. vehicle)” value [6, 9] was 4 days, the TGI [6, 9] was 43.9% and the “Tn (tumor volume on Day n)” value [6, 9] was 706.0. For the same compound, the “Days to 500 mm^3” value [6, 10] was 14.5 days, the T/C [6, 10] was 50.3% and the “TGD500, Days (vs. vehicle)” value [6, 10] was 5 days. For the same compound, the TGI [6, 10] was 49.7%, the “Tn (tumor volume on Day n)” value [6, 10] was 641.6 and the “Days to 500 mm^3” value [7, 11] was 28 days. For the same compound, the “Days to 1000 mm^3” value [7, 11] was 46 days, the T/C [7, 11] was 48.4% and the “TGD500, Days (vs. vehicle)” value [7, 11] was 6 days. For the same compound, the “TGD1000, Days (vs. vehicle)” value [7, 11] was 14 days, the TGI [7, 11] was 51.6% and the “Tn (tumor volume on Day n)” value [7, 11] was 565.70. The “Days to 500 mm^3” value [7, 12] was 29 days, the “Days to 1000 mm^3” value [7, 12] was 41 days and the T/C [7, 12] was 52.0%. The “TGD500, Days (vs. vehicle)” value [7, 12] was 7 days, the “TGD1000, Days (vs. vehicle)” value [7, 12] was 9 days and the TGI [7, 12] was 48.0%. For the same compound, the “Tn (tumor volume on Day n)” value [7, 12] was 580.55 and the “Primary tumor growth during the treatment period” value [8] was “significantly inhibited primary tumor growth”.
